System: FIMMI
Assay: In-water applied greenhouse weed control, transplanted paddy rice system
Assay type: in vivo, Fimbristylis miliacea (L.) Vahl
Details: in-water application
Protocol: Weed seeds or nutlets of the desired test plant species were planted in puddled soil (mud) prepared by mixing a shredded, non-sterilized mineral soil (50.5 percent silt, 25.5 percent clay, and 24 percent sand, with a pH of about 7.6 and an organic matter content of about 2.9 percent) and water at a 1:1 volumetric ratio. The prepared mud was dispensed in 365 mL aliquots into 16-ounce (oz.) non-perforated plastic pots with a surface area of 86.59 square centimeters (cm^2) leaving a headspace of 3 centimeters (cm) in each pot. Mud was allowed to dry overnight prior to planting or transplanting. Rice seeds were planted in Sun Gro MetroMix® 306 planting mixture, which typically has a pH of 6.0 to 6.8 and an organic matter content of about 30 percent, in plastic plug trays. Seedlings at the second or third leaf stage of growth were transplanted into 840 mL of mud contained in 32-oz. non-perforated plastic pots with a surface area of 86.59 cm^2 4 days prior to herbicide application. The paddy was created by filling the headspace of the pots with 2.5 to 3 cm of water. When required to ensure good germination and healthy plants, a fungicide treatment and/or other chemical or physical treatment was applied. The plants were grown for 4-22 days in a greenhouse with an approximate 14 h photoperiod which was maintained at about 29° C. during the day and 26° C. during the night. Nutrients were added as Osmocote® (19:6:12, N:P:K+ minor nutrients) at 2 g per 16-oz. pot and 4 g per 32-oz. pot. Water was added on a regular basis to maintain the paddy flood, and supplemental lighting was provided with overhead metal halide 1000-Watt lamps as necessary. The plants were employed for testing when they reached the first through fourth true leaf stage.
Treatments consisted of the acid or esters of 4-amino-3-chloro-5-fluoro-6-(4-chloro-2-fluoro-3-methoxy-phenyl)pyridine-2-carboxylic acid (compound A) each formulated as an SC and various herbicidal components alone and in combination. Forms of compound A were applied on an acid equivalent basis.
Other herbicidal components were applied on an active ingredient basis and included daimuron formulated as an EC, bromobutide (technical grade material), and oxaziclomefone (technical grade material).
Treatment requirements for each compound or herbicidal component were calculated based upon the rates being tested, the concentration of active ingredient or acid equivalent in the formulation, an application volume of 2 mL per component per pot, and an application area of 86.59 cm^2 per pot.
For formulated compounds, a measured amount was placed in an individual 100 or 200 mL glass vial and was dissolved in a volume of 1.25% (v/v) Agri-Dex® crop oil concentrate to obtain application solutions.
For technical grade compounds, a weighed amount was placed in an individual 100 to 200 mL glass vial and was dissolved in a volume of acetone to obtain concentrated stock solutions. […] The concentrated stock solutions obtained were diluted with an equivalent volume of an aqueous mixture containing 2.5% (v/v) crop oil concentrate so that the final application solutions contained 1.25% (v/v) crop oil concentrate.
Applications were made by injecting, with a pipetter, appropriate amounts of the application solutions, individually and sequentially, into the aqueous layer of the paddy. Control plants were treated in the same manner with the solvent blank. Applications were made so that all treated plant material received the same concentrations of acetone and crop oil concentrate.
The treated plants and control plants were placed in a greenhouse as described above and water was added as needed to maintain a paddy flood. After approximately 3 weeks the condition of the test plants as compared with that of the untreated plants was determined visually and scored on a scale of 0 to 100 percent where 0 corresponds to no injury or growth inhibition and 100 corresponds to complete kill. […]

[1] = Compound A Benzyl Ester 8 gae/ha alone
[2] = Compound A Benzyl Ester 16 gae/ha alone

## COc1c(Cl)ccc(-c2nc(C(=O)OCc3ccccc3)c(Cl)c(N)c2F)c1F [Compound A Benzyl Ester]
[1]
  Visual Weed Control (%) - 19 DAA FIMMI Obs: 0%
  Visual Weed Control (%) - 21 DAA FIMMI Obs: 15%
[2]
  Visual Weed Control (%) - 19 DAA FIMMI Obs: 0%
  Visual Weed Control (%) - 21 DAA FIMMI Obs: 65%
Compound A Benzyl Ester 32 gae/ha alone
  Visual Weed Control (%) - 21 DAA FIMMI Obs: 75%
